Where a name gives a salt, the structure may show the parent alone. Read-outs that look alike come from different tables or passages of the source.
What was measured:
[1] = molecular target: hCB2 (Homo sapiens, UniProt P34972); assay: In vitro binding assay using hCB2-CHO membranes, [3H]-CP-55,940 displacement (Protocol IV); set-up: expressed in transfected cells; host or cells: CHO (hCB2-CHO, generated in-house); conditions: for inhibition at 0.3 µM: 1 h, read-out: % Displacement Protocol IV
Method: IV. Protocol for In Vitro Assay Using hCB2-CHO Membranes:
In this assay, [^3H]-CP-55,940 was used as the radioligand to bind human CB2 receptor expressed on the membranes from CHO cells (hCB2-CHO cell line was generated in-house) which can be displaced by unlabeled ligands having affinity to the CB2 receptor.
The assay was performed according to the modified method of Ross et al., 1999 (Br. J. Pharmacol. 128, 735-743). The reaction was set up in a total volume of 200 μl in PEI (0.2%) precoated Millipore GFB filter plates. 1 mM stocks of test compounds were prepared in DMSO and tested at a final concentration of 300 nM. The non-specific binding was determined by 0.5 μM CP-55, 940. The total reaction mixture contained Tris-BSA buffer (50 mM Tris, 5 mM MgCl2, 1 mM EDTA, pH 7.4 with 0.1% BSA), unlabelled CP-55, 940 (0.5 μM) or test samples, [^3H]-CP-55, 940 (0.75 nM) and 25-50 μg of human CB2 receptor preparation. The assay mixture (with or without the test compound) was incubated at 30° C. for 1 hour. The reaction was stopped by rapid filtration under vacuum and the radioactivity on the filters was measured by liquid scintillation counting.
(§1) The percent (%) displacement by a test ligand was calculated by comparing the specific bound values.

[2] = molecular target: CB1 (Rattus norvegicus, UniProt P20272); assay: Rat CB1 receptor binding using brain membrane, [3H]SR141716A displacement (Protocol I); set-up: CB1 receptor present in a rat brain membrane preparation; from tissue; host or cells: rat brain membrane; inhibition: dose or concentration left out as unconfirmed; conditions: for inhibition: 1 h
Method: I. In Vitro Protocol for Rat CB1 Receptor Binding Using Brain Membrane
In this assay, [^3H]SR141716A (5-(4-chlorophenyl)-1-(2,4-dichlorophenyl)-4-methyl-N-(1-piperidyl)pyrazole-3-carboxamide) was used to bind the CB1 receptor present in a rat brain membrane preparation which can be displaced by unlabeled ligands having affinity to the CB1 receptor.
The assay was performed according to the modified method of Thomas et al., 1998 (JPET 285: 285-292). The total reaction mixture ([…]) contained Tris-BSA buffer (50 mM Tris, pH 7.4 with 1.5% BSA) or unlabeled SR141716A […] or test samples […], [^3H] SR141716A (2 nM) and […] of rat brain membrane. The non-specific binding was defined by […] of SR141716A. The assay mixture was incubated at 37° C. for 1 hour. The reaction was then stopped by rapid filtration under vacuum using Whatman GF/B-96 micro filter plate. A scintillation cocktail was added and radioactive counts were measured using a Topcount beta scintillation counter.
The standard and test sample dilutions were made in an assay buffer containing either ethanol or DMSO at a final concentration of 1%.
as §1

[3] = hCB2-CHO membranes, [3H]-CP-55,940 displacement
[4] = rat brain membrane, [3H]SR141716A displacement, read-out: % Displacement Protocol I
[5] = rat brain membrane, [3H]SR141716A displacement
[6] = read-out: % Displacement Protocol I, rat brain membrane, [3H]SR141716A displacement

Chain of hCB2 (P34972 whole entry): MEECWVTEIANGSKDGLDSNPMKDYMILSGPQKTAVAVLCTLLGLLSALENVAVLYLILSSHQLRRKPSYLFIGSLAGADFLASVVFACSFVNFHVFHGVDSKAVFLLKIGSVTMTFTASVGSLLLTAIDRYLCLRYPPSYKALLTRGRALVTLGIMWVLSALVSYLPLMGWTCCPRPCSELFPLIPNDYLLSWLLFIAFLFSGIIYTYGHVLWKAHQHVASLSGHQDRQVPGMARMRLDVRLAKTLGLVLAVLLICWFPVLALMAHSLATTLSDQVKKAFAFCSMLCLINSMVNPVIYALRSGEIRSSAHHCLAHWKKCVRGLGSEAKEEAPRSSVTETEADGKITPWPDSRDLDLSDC
Chain of CB1 (P20272 whole entry): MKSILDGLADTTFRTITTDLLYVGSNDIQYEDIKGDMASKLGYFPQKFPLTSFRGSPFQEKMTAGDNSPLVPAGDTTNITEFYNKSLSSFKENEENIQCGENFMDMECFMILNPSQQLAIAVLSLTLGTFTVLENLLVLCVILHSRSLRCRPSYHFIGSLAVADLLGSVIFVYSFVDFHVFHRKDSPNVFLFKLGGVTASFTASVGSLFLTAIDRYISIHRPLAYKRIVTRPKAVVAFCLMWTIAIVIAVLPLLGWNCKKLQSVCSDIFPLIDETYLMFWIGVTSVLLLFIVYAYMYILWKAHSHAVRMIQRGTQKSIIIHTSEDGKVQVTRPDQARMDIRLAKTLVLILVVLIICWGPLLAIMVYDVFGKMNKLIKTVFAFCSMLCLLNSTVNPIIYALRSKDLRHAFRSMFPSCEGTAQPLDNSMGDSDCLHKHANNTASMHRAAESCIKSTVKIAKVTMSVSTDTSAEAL

Which inhibition at 0.3 µM [1, 3] does the source give for O=C(Nc1cccc(Br)c1)c1n[nH]c2c1C1(c3ccc(Cl)cc3)CCC2C1 (stereo not shown) [Example 217, N(3)-(3-Bromophenyl)-4-(4-chlorophenyl)-4,5,6,7-tetrahydro-1H-4,7-methano-indazole-3-carboxamide] here?
The inhibition at 0.3 µM was 10.7%.

What about the inhibition [2, 4] of the same molecule?
Its inhibition is 20.5%.

For O=C(NCc1ccccc1)c1nn(-c2ccc(F)cc2)c2c1C1CCC2C1 (stereo not shown) [Example 280, N(3)-Benzyl-1-(4-fluorophenyl)-4,5,6,7-tetrahydro-1H-4,7-methano-indazole-3-carboxamide], which melting point is on record?
Its melting point is 104 °C.

And the inhibition [2, 4]?
Its inhibition is 33%.

For O=C(Nc1ccccc1)c1nn(-c2ccc(Cl)cc2)c2c1C1CC3CC(C1)CC2C3 [Example 142, N(7)-Phenyl-5-(4′-chlorophenyl)-5,6-diazatetracyclo[7.3.1.1^3,11.0^4,8]tetradeca-4(8)-6-diene-7-carboxamide], which “% Displacement Protocol IV” value [1, 3] is on record?
The value was 9.86%.

What about the “% Displacement Protocol I” value [2, 5] of the same molecule?
The value was 25%.

Which “% Displacement Protocol I” value [2, 5] does the source give for O=C(c1nn(-c2ccc(Cl)cc2)c2c1C1CC3CC(C1)CC2C3)N1CCCCC1 [Example 141, 7-(4′-Chlorophenyl)-6,7-diazatetracyclo[7.3.1.1^3,11.0^4,8]tetradeca-4(8)-5-dien-5-yl-piperidinomethanone] here?
Its value is 17%.

For O=C(NCc1ccc(Br)cc1)c1nn(-c2ccc(Cl)cc2)c2c1C1CCC2C1 (stereo not shown) [Example 225, N(3)-(4-Bromobenzyl)-1-(4-chlorophenyl)-4,5,6,7-tetrahydro-1H-4,7-methano-indazole-3-carboxamide], which melting point is on record?
The melting point was 181 to 183 °C.

What about the inhibition [2, 4] of the same molecule?
Its inhibition is 31.1%.

Which results are given for O=C(Nc1ccccc1)c1nn(-c2ccc(Cl)cc2Cl)c2c1C1CCC2C1 (stereo not shown) [Example 243, N(3)-Phenyl-1-(2,4-dichlorophenyl)-4,5,6,7-tetrahydro-1H-4,7-methano-indazole-3-carboxamide]?
melting point: 66 to 68 °C; inhibition [2, 4]: 23.5%

For O=C(NCc1ccc(C(F)(F)F)cc1)c1nn(-c2ccc(Cl)cc2)c2c1C1CC3CC(C1)CC2C3 [Example 116, N(7)-(4-Trifluoromethylbenzyl)-5-(4-chlorophenyl)-5,6-diazatetracyclo[7.3.1.1^3,11.0^4,8]tetradeca-4(8),6-diene-7-carboxamide], which inhibition [2, 6] is on record?
The inhibition was 24.9%.

For COc1ccccc1NC(=O)c1nn(-c2ccc(Cl)cc2)c2c1C1CCC2C1 (stereo not shown) [Example 218, N(3)-(2-Methoxyphenyl)-1-(4-chlorophenyl)-4,5,6,7-tetrahydro-1H-4,7-methano-indazole-3-carboxamide], which melting point is on record?
The melting point was 149 to 151 °C.

What about the inhibition [2, 4] of the same molecule?
The inhibition was 29.9%.

Which inhibition [2, 6] does the source give for O=C(NNc1ccccc1Cl)c1nn(-c2ccc(Cl)cc2)c2c1C1CC3CC(C1)CC2C3 [Example 124, N(7)-(2-Chlorophenylamino)-5-(4-chlorophenyl)-5,6-diazatetracyclo[7.3.1.1^3,11.0^4,8]tetradeca-4(8),6-diene-7-carboxamide hydrochloride] here?
Its inhibition is 80.1%.

Which inhibition [2, 4] does the source give for O=C(NCCc1ccc(F)cc1)c1nn(-c2ccc(Cl)cc2Cl)c2c1C1CCC2C1 (stereo not shown) [Example 255, N(3)-[2-(4-fluorophenyl)ethyl]-1-(2,4-dichlorophenyl)-4,5,6,7-tetrahydro-1H-4,7-methano-indazole-3-carboxamide] here?
Its inhibition is 23.9%.

With O=C(NCCc1ccccc1)c1nn(-c2ccc(Cl)cc2Cl)c2c1C1CCC2C1 (stereo not shown) [Example 254, N(3)-(2-phenylethyl)-1-(2,4-dichlorophenyl)-4,5,6,7-tetrahydro-1H-4,7-methano-indazole-3-carboxamide] as the molecule, how does the inhibition [2, 4] read?
Its inhibition is 9.1%.

What does the source list for CC(C)(NC(=O)c1nn(-c2ccc(F)cc2F)c2c1C1CCC2c2ccccc21)c1ccccc1 (stereo not shown) [Example 509, N12-(1-Methyl-1-phenylethyl)-10-(2,4-difluorophenyl)-10,11-diazatetracyclo[6.5.2.0^2,7.0^9,13]pentadeca-2,4,6,9(13),11-pentaene-12-carboxamide]?
melting point: 175 to 178 °C; inhibition at 0.3 µM [1]: 67.2%

With O=C(NC1CC1)c1nn(-c2ccc(F)cc2F)c2c1C1CCC2C1 (stereo not shown) [Example 317, N(3)-Cyclopropyl-1-(2,4-difluorophenyl)-4,5,6,7-tetrahydro-1H-4,7-methano-indazole-3-carboxamide] as the molecule, how does the melting point read?
Its melting point is 59 to 61 °C.

And the inhibition at 0.3 µM [1]?
Its inhibition at 0.3 µM is 16.9%.

Which results are given for CCC(C)(C)NC(=O)c1nn(-c2ccc(F)cc2F)c2c1C1CCC2CC1 [Example 802, N(5)-(tert-Pentyl)-3-(2,4-difluorophenyl)-3,4-diazatricyclo[5.2.2.0^2,6]undeca-2(6),4-diene-5-carboxamide]?
melting point: 102 to 105 °C; inhibition at 0.3 µM [1]: 100%

With CCC(C)(C)NC(=O)c1nn(-c2ccc(F)cc2F)c2c1C1CCC2C1 (stereo not shown) [Example 313, N(3)-(tert-Pentyl)-1-(2,4-difluorophenyl)-4,5,6,7-tetrahydro-1H-4,7-methano-indazole-3-carboxamide] as the molecule, how does the melting point read?
Its melting point is 78 to 80 °C.

What about the inhibition at 0.3 µM [1] of the same molecule?
Its inhibition at 0.3 µM is 98.2%.

Which results are given for O=C(NC12CC3CC(CC(O)(C3)C1)C2)c1nn(-c2ccc(F)cc2F)c2c1C1CC3CC(C1)CC2C3 [Example 156, N7-(3-Hydroxyadamantan-1-yl)-5-(2,4-difluorophenyl)-5,6-diazatetracyclo[7.3.1.1^3,11.0^4,8]tetradeca-4(8),6-diene-7-carboxamide]?
melting point: 240 to 243 °C; inhibition at 0.3 µM [1]: 89.3%

With O=C(NCc1cccnc1)c1nn(-c2ccc(Cl)cc2)c2c1C1CC3CC(C1)CC2C3 [Example 104, N(7)-(3-Pyridylmethyl)-5-(4-chlorophenyl)-5,6-diazatetracyclo[7.3.1.1^3,11.0^4,8]tetradeca-4(8),6-diene-7-carboxamide] as the molecule, how does the melting point read?
The melting point was 180 °C.

What about the inhibition at 0.3 µM [1, 3] of the same molecule?
The inhibition at 0.3 µM was 20.2%.

For O=C(NN1CCCCC1)c1nn(-c2ccc(Cl)cc2Cl)c2c1C1c3ccccc3C2C2C(=O)N(c3ccc(Cl)cc3)C(=O)C12 (stereo not shown) [Example 602, N(12)-Piperidino-16-(4-chlorophenyl)-10-(2,4-dichlorophenyl)-15,17-dioxo-10,11,16-triazapentacyclo[6.5.2.0^2,7.0^9,13.0^14,18]octadeca-2,4,6,9(13),11-pentaene-12-carboxamide], which “% Displacement Protocol IV” value [1, 3] is on record?
The value was 16.4%.

What about the “% Displacement Protocol I” value [2, 5] of the same molecule?
Its value is 4.1%.

For CC12CCC(C1)C(C)(C)C2NC(=O)c1nn(-c2ccc(F)cc2)c2c1C1CC3CC(C1)CC2C3 (stereo not shown) [Example 159, N7-(1,3,3-Trimethylbicyclo[2.2.1]hept-2-yl)-5-(4-fluorophenyl)-5,6-diazatetracyclo[7.3.1.1^3,11.0^4,8]tetradeca-4(8),6-diene-7-carboxamide], which melting point is on record?
The melting point was 139 to 141 °C.

What about the inhibition at 0.3 µM [1] of the same molecule?
Its inhibition at 0.3 µM is 97.7%.

Which melting point does the source give for CC(C)(NC(=O)c1nn(-c2ccc(F)cc2F)c2c1C1CC3CC(C1)CC2C3)c1ccccc1 [Example 148, N(7)-(1-Methyl-1-phenylethyl)-5-(2,4-difluorophenyl)-5,6-diazatetracyclo[7.3.1.1^3,11.0^4,8]tetradeca-4(8),6-diene-7-carboxamide] here?
The melting point was 150 to 152 °C.

And the inhibition at 0.3 µM [1]?
Its inhibition at 0.3 µM is 79.2%.

With O=C(NCc1ccccc1)c1nn(-c2ccccc2Cl)c2c1C1CCC2C1 (stereo not shown) [Example 207, N(3)-Benzyl-1-(2-chlorophenyl)-4,5,6,7-tetrahydro-1H-4,7-methano-indazole-3-carboxamide] as the molecule, how does the inhibition [2, 4] read?
Its inhibition is -1.2%.

With CCC(CC)(NC(=O)c1nn(-c2ccc(F)cc2F)c2c1C1CCC2C1)c1ccccc1 (stereo not shown) [Example 299, N5-(1-Ethyl-1-phenylpropyl)-3-(2,4-difluorophenyl)-3,4-diazatricyclo[5.2.1.0^2,6]deca-2(6),4-diene-5-carboxamide] as the molecule, how does the melting point read?
Its melting point is 45 to 48 °C.

What about the inhibition at 0.3 µM [1] of the same molecule?
Its inhibition at 0.3 µM is 77.6%.

For O=C(NCc1ccc(Cl)cc1)c1nn(-c2ccc(F)cc2F)c2c1C1CCC2C1 (stereo not shown) [Example 298, N5-(4-Chlorobenzyl)-3-(2,4-difluorophenyl)-3,4-diazatricyclo[5.2.1.0^2,6]deca-2(6),4-diene-5-carboxamide], which melting point is on record?
Its melting point is 121 to 125 °C.

What about the inhibition at 0.3 µM [1, 3] of the same molecule?
Its inhibition at 0.3 µM is 11.2%.
